{
  "source": "patent US20250345318A1",
  "about": "“COMPOUND AND USE THEREOF IN PREVENTING OR TREATING RADIATION DAMAGE” (SIMCERE PHARMACEUTICAL CO., LTD., priority 2022, published 2025)",
  "key": {"IEC-6 cells": {"tested_on": "IEC-6 cells", "experiment": "γ-H2AX immunofluorescence in irradiated IEC-6 cells (Example 13)", "assay_type": "cell-based", "conditions": "JAC4 + radiation", "method": "The cell immunofluorescent images of γ-H2AX in different treatment groups were recorded after the IEC-6 cells were irradiated, and the mean fluorescence intensity of individual cells (***p<0.001) was measured using Image J. The results are shown in FIG. 19."}, "C57BL/6 male mice [1]": {"tested_on": "C57BL/6 male mice", "experiment": "Prophylactic JAC4 administration, total body X-ray irradiation, small intestine villus length (Example 6)", "assay_type": "in vivo", "method": "C57BL/6 male mice (24.8±1.6 g in body weight) aged 10 weeks were divided into 4 groups. JAC4 (100 mg/kg) or an equal volume of vehicle (polyethylene glycol:ethanol:physiological saline=47.5:7.5:50, v/v/v) was orally administered to the mice once daily for 7 consecutive days. After that, the mice were subjected to total body X-ray irradiation (6 Gy) and JAC4 or vehicle treatment was discontinued. After 7 days, the small intestine tissues were collected for HE staining and inspection, and the small intestine villus length was measured in all groups and statistically analyzed. The specific procedures are as follows: 3 mice were randomly selected from each group for statistical analysis of their small intestine tissue HE staining images, and for each mouse, 6 fields of view were randomly selected for inspection (*** p<0.001)."}, "C57BL/6 male mice [2]": {"tested_on": "C57BL/6 male mice", "experiment": "Dose-response of protection against total body X-ray irradiation: body weight, small intestine villus length (Example 5)", "assay_type": "in vivo", "method": "C57BL/6 male mice (24.8±1.6 g in body weight) aged 10 weeks were divided into 6 groups: a vehicle control group, a JAC4 (200 mg/kg) treatment group, a vehicle control+radiation group, and JAC4 intervention (50 mg/kg, 100 mg/kg, and 200 mg/kg)+radiation groups, with 12 mice in each group. JAC4 or an equal volume of vehicle (polyethylene glycol:ethanol:physiological saline=47.5:7.5:50, v/v/v) was orally administered to the mice once daily for 7 consecutive days. After that, the mice in the radiation groups were subjected to total body X-ray irradiation (6 Gy). The JAC4 or vehicle treatment was continued for 3 days.\nThe body weights of the mice before and after the total body X-ray irradiation were measured, and the body weight curves are shown in FIG. 8.\nHE staining was performed on the small intestine tissues of mice subjected to total body X-ray irradiation. The length of the small intestine villi in all groups was measured and the results were statistically analyzed. The specific procedures are as follows: 3 mice were randomly selected from each group for statistical analysis of their small intestine tissue HE staining images, and for each mouse, 6 fields of view were randomly selected for inspection (** p<0.01, *** p<0.001)."}, "lung tissue [3]": {"tested_on": "lung tissue", "experiment": "JWA, γ-H2AX, p-p65 in lung tissue of xenograft mice (immunofluorescence, immunoblot) (Example 21)", "assay_type": "in vivo", "from_the_text": "In order to verify the protection effect of JAC4 against X-ray-induced DNA damage in lung tissues, 3 mice were randomly selected from each group to provide the lung tissue for immunofluorescence staining, and proteins were extracted from the lung tissues of the other 3 mice for western immunoblot to detect the expression levels of JWA, γ-H2AX, and p-p65, thereby verifying the relation between the targets of JAC4 and the reduction of DNA damage and apoptotic damages in the lung tissues. The western blot procedures are detailed in Example 4, and the immunofluorescence staining procedures are as follows:\n1. Dewaxing and hydration: Prepared paraffin sections were dewaxed in an oven at 60° C. for 2-3 h to ensure a tight attachment between the section and the slide; the sections were then dewaxed by soaking in xylene I, 30 min→xylene II, 30 min→xylene III, 30 min→absolute ethyl alcohol I, shaker, 5 min→absolute ethyl alcohol II, shaker, 5 min→95% ethyl alcohol, shaker, 5 min→85% ethyl alcohol, shaker, 5 min→75% ethyl alcohol, shaker, 5 min→PBS, shaker, 5 min×3.\n2. Antigen retrieval: The washed sections were boiled in 500 mL of 1× antigen retrieval solution (20× sodium citrate buffer 25 mL, pH 6.0, diluted to 1× in 475 mL of PBS), then taken out 10 min after the solution started boiling, and cooled to room temperature.\n3. Cleaning and blocking: The sections were washed with PBS for 5 min thrice on a shaker. Droplets on the sections were removed carefully without overdrying. The edges of the sections were marked with an immunofluorescent pen, and a blocking buffer (centrifuged at 12,000 g for 5 min) was dropwise added to completely cover the sections. The sections were blocked for 1 h at room temperature.\n4. Cleaning and co-incubation with primary antibody: After removing the blocking buffer, the sections were washed with PBS for 5 min thrice on a shaker; the primary antibody (centrifuged at 6,000 g for 5 min) was added dropwise to cover the sections, and the sections were incubated into a humidified chamber overnight at 4° C.\n5. Cleaning and co-incubation with secondary antibody: The sections were washed with PBS for 5 min thrice on a shaker before the fluorescent secondary antibody (centrifuged at 6,000 g for 5 min) was added dropwise away from light. The sections were incubated at room temperature for 1 h.\n6. Cleaning, nucleus staining, and photographing: The whole procedure was performed away from light. The sections were washed with PBS for 5 min thrice on a shaker. An anti-fluorescence quenching blocker containing DAPI was added dropwise. The cover glass was mounted for sealing and slowly from one side to avoid bubbles. The sealed slices were incubated in a humidified chamber for 15 min and continuously photographed to give images under a laser confocal microscope."}, "lung tissue [4]": {"tested_on": "lung tissue", "experiment": "Inflammation level in lung tissue of xenograft mice (RT-PCR, HE) (Example 21)", "assay_type": "in vivo", "method": "After the modeling in Example 20 was completed, the inflammation level and DNA damage in the lung tissue were detected by the following specific procedures: 3 mice were randomly selected from each group to provide the lung tissue. About 20-30 mg of lung tissue was collected from each mouse in a centrifuge tube. The total RNA was isolated and extracted using the TRIzol reagent (Invitrogen) for RT-PCR (Reverse Transcription-Polymerase Chain Reaction) detection. The RNA was reversely transcribed into cDNA using a reverse transcription kit from Vazyme. Reaction system: 42° C., 2 min; 37° C., 15 min; 85° C., 5 s. The samples were preserved in a refrigerator at […] or −80° C. for later use. 30-35 PCR amplification cycles were performed. The data were analyzed by the ΔΔCt method using glyceraldehyde-3-phosphate dehydrogenase (GAPDH) as an internal standard and the AceQ qPCR SYBR Green Master Mix fluorescent quantitative PCR reagent from Vazyme on the 7900HT high throughput flash real-time fluorescent quantitative PCR system from Thermo Fisher Scientific for PCR assay. The results are shown in FIG. 29, with the following specific conditions: […]"}, "[5]": {"conditions": "JAC4+X-ray group relative to X-ray group"}, "[6]": {"conditions": "JAC4 group relative to control group"}},
  "data": [
    {"compound": "c1ccc(CSc2nnc(C3COc4ccccc4O3)o2)nc1", "note": "(stereo not drawn) [JAC4]", "values": [
      {"measurement": "mean fluorescence intensity of γ-H2AX", "setting": "IEC-6 cells", "result": "26.00±1.79"},
      {"measurement": "small intestine villus length", "setting": "C57BL/6 male mice [1]; JAC4 100 mg/kg oral 7 days pretreatment, then TBI 6 Gy, tissue 7 days later", "result": "277.64±33.55", "unit": "μm"},
      {"measurement": "small intestine villus length", "setting": "C57BL/6 male mice [1]; non-radiation, JAC4 100 mg/kg oral 7 days", "result": "306.54±14.00", "unit": "μm"},
      {"measurement": "body weight loss after radiation", "setting": "C57BL/6 male mice [2]; JAC4 50, 100, 200 mg/kg oral + TBI 6 Gy vs vehicle+radiation", "result": "slower body weight loss"},
      {"measurement": "small intestine villus length", "setting": "C57BL/6 male mice [2]; day 3 after TBI 6 Gy, JAC4 50 mg/kg oral", "result": "249.42±27.19", "unit": "μm"},
      {"measurement": "small intestine villus length", "setting": "C57BL/6 male mice [2]; day 3 after TBI 6 Gy, JAC4 100 mg/kg oral", "result": "244.78±40.74", "unit": "μm"},
      {"measurement": "small intestine villus length", "setting": "C57BL/6 male mice [2]; day 3 after TBI 6 Gy, JAC4 200 mg/kg oral", "result": "212.43±27.99", "unit": "μm"},
      {"measurement": "small intestine villus length", "setting": "C57BL/6 male mice [2]; day 7 after TBI 6 Gy, JAC4 50 mg/kg oral", "result": "235.57±24.34", "unit": "μm"},
      {"measurement": "small intestine villus length", "setting": "C57BL/6 male mice [2]; day 7 after TBI 6 Gy, JAC4 100 mg/kg oral", "result": "254.95±28.91", "unit": "μm"},
      {"measurement": "small intestine villus length", "setting": "C57BL/6 male mice [2]; day 7 after TBI 6 Gy, JAC4 200 mg/kg oral", "result": "259.17±17.56", "unit": "μm"},
      {"measurement": "small intestine villus length", "setting": "C57BL/6 male mice [2]; non-radiation, JAC4 200 mg/kg oral", "result": "306.78±14.64", "unit": "μm"},
      {"measurement": "JWA protein level in lung tissue (immunoblot)", "setting": "lung tissue [3]; [5]", "result": 1.25, "unit": "folds"},
      {"measurement": "p-p65 protein level in lung tissue (immunoblot)", "setting": "lung tissue [3]; [5]", "result": 0.61, "unit": "folds"},
      {"measurement": "γ-H2AX protein level in lung tissue (immunoblot)", "setting": "lung tissue [3]; [5]", "result": 0.83, "unit": "folds"},
      {"measurement": "fluorescence intensities of γ-H2AX, TNF-α, and TGF-β1 in lung tissue", "setting": "lung tissue [3]; JAC4+X-ray group vs X-ray group, immunofluorescence", "result": "significantly decreased"},
      {"measurement": "JWA fluorescence intensity in lung tissue", "setting": "lung tissue [3]; JAC4 and JAC4+X-ray groups vs control group, immunofluorescence", "result": "higher JWA fluorescence intensity as compared with the control group"},
      {"measurement": "JWA protein level in lung tissue (immunoblot)", "setting": "lung tissue [3]; [6]", "result": 4.23, "unit": "folds"},
      {"measurement": "p-p65 protein level in lung tissue (immunoblot)", "setting": "lung tissue [3]; [6]", "result": 0.63, "unit": "folds"},
      {"measurement": "γ-H2AX protein level in lung tissue (immunoblot)", "setting": "lung tissue [3]; [6]", "result": 0.91, "unit": "folds"},
      {"measurement": "mRNA level of anti-inflammatory factor IL-10 in lung tissue", "setting": "lung tissue [4]; [5]", "result": 2.91, "unit": "folds"},
      {"measurement": "mRNA level of proinflammatory factor IL-1P in lung tissue", "setting": "lung tissue [4]; [5]", "result": 0.43, "unit": "folds"},
      {"measurement": "mRNA level of proinflammatory factor TGF-β1 in lung tissue", "setting": "lung tissue [4]; [5]", "result": 0.71, "unit": "folds"},
      {"measurement": "mRNA level of proinflammatory factor TNF-α in lung tissue", "setting": "lung tissue [4]; [5]", "result": 0.63, "unit": "folds"},
      {"measurement": "HE staining of lung tissues", "setting": "lung tissue [4]; JAC4 treatment in combination with X-ray therapy", "result": "reduced inflammatory cell infiltration"}
    ]}
  ]
}
